The supplement of paper PMC4862054
Several values for one entry are separate records, joined by “and”; a condition that tells them apart may be missing. Equal entries are not always repeated.

How the values were obtained:
Details in all cases: incubation time: 72 h
BT-474 [1] = assay: normalised viability (% of control), CellTiter-Blue; higher = more viable cells (100 = DMSO, 0 = benzethonium chloride kill control)
Protocol: (§1)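 DSRT, CellTiter-Blue viability, 72 h incubation. Signal is normalised to DMSO and benzethonium chloride controls. Value is the normalised response at dose 1.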

BT-549 [2] = assay: as above
Protocol: as §1

CAL-120 [3] = assay: as above
Protocol: as §1

CAL-148 [4] = assay: as above
Protocol: as §1

CAL-51 [5] = assay: as above
Protocol: as §1

CAL-85-1 [6] = assay: as above
Protocol: as §1

DU-4475 [7] = assay: as above
Protocol: as §1

HCC1143 [8] = assay: as above
Protocol: as §1

HCC1599 [9] = assay: as above
Protocol: as §1

HCC1937 [10] = assay: as above
Protocol: as §1

HDQ-P1 [11] = assay: as above
Protocol: as §1

Hs578T [12] = assay: as above
Protocol: as §1

MDA-MB-231 [13] = assay: as above
Protocol: as §1

MDA-MB-436 [14] = assay: as above
Protocol: as §1

MDA-MB-453 [15] = assay: as above
Protocol: as §1

MDA-MB-468 [16] = assay: as above
Protocol: as §1

MFM-223 [17] = assay: as above
Protocol: as §1

SK-BR-3 [18] = assay: as above
Protocol: as §1

BT-474 [19] = assay: normalised response (% of control), CellTiter-Glo; higher = more viable cells (100 = DMSO, 0 = benzethonium chloride kill control)
Method in brief: (§2)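 Plates were normalised with 0.1 % DMSO as 100 and a positive kill control as 0. Breast cancer cell lines in 20 µl suspension had been seeded into 384-well plates with compound at 5 concentrations in 10-fold steps over a compound-specific 10,000-fold range, incubated 72 h, and read for CellTox Green fluorescence (485/520 nm) followed by CellTiter-Glo luminescence. Each value is the normalised signal at a single concentration.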

BT-549 [20] = assay: as above
Method in brief: as §2

CAL-120 [21] = assay: as above
Method in brief: as §2

CAL-148 [22] = assay: as above
Method in brief: as §2

CAL-51 [23] = assay: as above
Method in brief: as §2

CAL-85-1 [24] = assay: as above
Method in brief: as §2

DU-4475 [25] = assay: as above
Method in brief: as §2

HCC1143 [26] = assay: as above
Method in brief: as §2

HCC1599 [27] = assay: as above
Method in brief: as §2

HCC1937 [28] = assay: as above
Method in brief: as §2

HDQ-P1 [29] = assay: as above
Method in brief: as §2

Hs578T [30] = assay: as above
Method in brief: as §2

MCF-10A = assay: as above
Method in brief: as §2

MDA-MB-231 [31] = assay: as above
Method in brief: as §2

MDA-MB-436 [32] = assay: as above
Method in brief: as §2

MDA-MB-453 [33] = assay: as above
Method in brief: as §2

MDA-MB-468 [34] = assay: as above
Method in brief: as §2

MFM-223 [35] = assay: as above
Method in brief: as §2

SK-BR-3 [36] = assay: as above
Method in brief: as §2

| SMILES | normalised viability (BT-474 [1]) | normalised viability (BT-549 [2]) | normalised viability (CAL-120 [3]) | normalised viability (CAL-148 [4]) | normalised viability (CAL-51 [5]) | normalised viability (CAL-85-1 [6]) | normalised viability (DU-4475 [7]) | normalised viability (HCC1143 [8]) | normalised viability (HCC1599 [9]) | normalised viability (HCC1937 [10]) | normalised viability (HDQ-P1 [11]) [%] | normalised viability (Hs578T [12]) | normalised viability (MDA-MB-231 [13]) | normalised viability (MDA-MB-436 [14]) | normalised viability (MDA-MB-453 [15]) | normalised viability (MDA-MB-468 [16]) | normalised viability (MFM-223 [17]) | normalised viability (SK-BR-3 [18]) | normalised response (BT-474 [19]) [%] | normalised response (BT-549 [20]) [%] | normalised response (CAL-120 [21]) [%] | normalised response (CAL-148 [22]) [%] | normalised response (CAL-51 [23]) [%] | normalised response (CAL-85-1 [24]) [%] | normalised response (DU-4475 [25]) [%] | normalised response (HCC1143 [26]) [%] | normalised response (HCC1599 [27]) [%] | normalised response (HCC1937 [28]) [%] | normalised response (HDQ-P1 [29]) [%] | normalised response (Hs578T [30]) [%] | normalised response (MCF-10A) [%] | normalised response (MDA-MB-231 [31]) [%] | normalised response (MDA-MB-436 [32]) [%] | normalised response (MDA-MB-453 [33]) [%] | normalised response (MDA-MB-468 [34]) [%] | normalised response (MFM-223 [35]) [%] | normalised response (SK-BR-3 [36]) [%] |
| --- | --- | --- | --- | --- | --- | --- | --- | --- | --- | --- | --- | --- | --- | --- | --- | --- | --- | --- | --- | --- | --- | --- | --- | --- | --- | --- | --- | --- | --- | --- | --- | --- | --- | --- | --- | --- | --- |
| CC(=O)c1c(C)c2cnc(Nc3ccc(N4CCNCC4)cn3)nc2n(C2CCCC2)c1=O (1 nM) | 108% | 102% | 87.1% | 107% | 104% | 87.9% | 99% | 100% | 105% | 94.7% | 79.2 | 89.5% | 94.6% | 94.1% | 106% | 109% | 88.5% | 93.1% | – | – | – | – | – | – | – | – | – | – | – | – | – | – | – | – | – | – | – |
| COc1cc2c(cc1O)CC[C@@H]1[C@@H]2CC[C@]2(C)[C@@H](O)CC[C@@H]12 [2-methoxyestradiol] (1 nM) | 102% | 96.4% | 92.1% | 102% | 112% | 91.6% | 107% | 88.9% | 101% | 87.5% | 97.1 | 105% | 88.8% | 115% | 95.5% | 103% | 102% | 89.3% | 96.7 | 103 | 94.9 | 97.3 | 122 | 102 | 99 | 97.8 | 104 | 98.8 | 97.1 | 106 | 92.5 | 104 | 101 | 106 | 104 | 95.9 | 87.2 |
| Cc1sc2c(c1C)C(c1ccc(Cl)cc1)=N[C@@H](CC(=O)OC(C)(C)C)c1nnc(C)n1-2 [(+)JQ1] (1 nM) | 114% | 104% | 90.3% | 108% | 97.5% | 87.4% | 110% | 126% | 113% | 97.4% | 90.9 | 114% | 114% | 139% | 177% | 104% | 102% | 107% | 107 | 103 | 98.5 | 113 | 85 | 97.2 | 106 | 103 | 96.6 | 95.8 | 101 | 98.1 | 105 | 106 | 127 | 126 | 103 | 104 | 111 |
| Oc1ncnc2[nH]ncc12 [Allopurinol] (1 nM) | 97.2% | 92.2% | 111% | 119% | 92.5% | 112% | 109% | 106% | 91.2% | 78.6% | 108 | 95.6% | 93.5% | 102% | 116% | 109% | 96.2% | 91.7% | 101 | 106 | 100 | 100 | 95.1 | 99.3 | 102 | 108 | 101 | 98.2 | 101 | 103 | 108 | 101 | 99.9 | 113 | 109 | 105 | 117 |
| O=C1CN2Cc3c(ccc(Cl)c3Cl)N=C2N1 [Anagrelide] (1 nM) | 122% | 113% | 84.6% | 103% | 105% | 88.7% | 109% | 90.1% | 87.8% | 68.3% | 112 | 119% | 102% | 80.8% | 105% | 101% | 98.9% | 96.1% | 90.6 | 101 | 92.8 | 90.2 | 110 | 99.5 | 102 | 100 | 105 | 97.1 | 110 | 100 | 94 | 97.2 | 86 | 109 | 103 | 98.8 | 104 |
| Nc1ncn([C@@H]2O[C@H](CO)[C@@H](O)[C@H]2O)c(=O)n1 [Azacitidine] (1 nM) | 89.5% | 93.7% | 84.4% | 92% | 102% | 94.9% | 109% | 89.3% | 89.1% | 85% | 99.9 | 105% | 89.3% | 108% | 102% | 95.5% | 95.5% | 94.6% | 97.1 | 96.5 | 95.9 | 96.1 | 129 | 103 | 102 | 95.4 | 96.8 | 94 | 98.7 | 98.7 | 101 | 101 | 102 | 112 | 100 | 104 | 105 |
| CC(=O)O[C@@]12CO[C@@H]1C[C@H](O)[C@@]1(C)C(=O)[C@H](O)C3=C(C)[C@@H](OC(=O)[C@H](O)[C@@H](NC(=O)OC(C)(C)C)c4ccccc4)C[C@@](O)([C@@H](OC(=O)c4ccccc4)[C@H]21)C3(C)C [Docetaxel] (0.1 nM) | 104% and 90.1% | 92.9% and 96.3% | 96.5% and 94.7% | 107% and 110% | 104% and 92.1% | 101% and 106% | 109% and 110% | 107% and 111% | 119% and 123% | 81.5% and 83.6% | – | 99.7% and 96.5% | 110% and 94.6% | 91.9% and 106% | 118% and 98.6% | 96.8% and 100% | 100% and 102% | 103% and 105% | 98.8 | 104 | 104 | 90.8 | 94.5 | 102 | 96.7 | 96.3 | 101 | 94.5 | 96.2 | 93.2 | 98 | 102 | 105 | 99.7 | 106 | 96.9 | 99.3 |
| C[C@]12CC[C@@H]3c4ccc(OC(=O)N(CCCl)CCCl)cc4CC[C@H]3[C@@H]1CC[C@@H]2O [Estramustine] (0.099 nM) | 93.4% | 92.4% | 111% | 109% | 84% | 108% | 89.9% | 104% | 84.8% | 91.8% | 106 | 94.3% | 93.3% | 106% | 98.9% | 107% | 106% | 114% | – | – | – | – | – | – | – | – | – | – | – | – | – | – | – | – | – | – | – |
| C[C@]1(O)C[C@@H](c2nc(-c3ccc4ccc(-c5ccccc5)nc4c3)c3c(N)nccn32)C1 [OSI-906] (1 nM) | 82.9% | 95.7% | 97.4% | 94.6% | 95.6% | 100% | 89% | 96.8% | 100% | 92.3% | 74.5 | 101% | 83.7% | 85% | 85.7% | 100% | 95.6% | 91.1% | – | – | – | – | – | – | – | – | – | – | – | – | – | – | – | – | – | – | – |
| COc1cc(F)c(F)c(Nc2ccc(I)cc2F)c1NS(=O)(=O)C1(C[C@H](O)CO)CC1 [RDEA119] (1 nM) | 79.7% | 97.3% | 98.7% | 88.7% | 91.8% | 108% | 99.3% | 98.8% | 93% | 80.9% | 79.4 | 95.4% | 77.4% | 104% | 84.5% | 95.8% | 92.5% | 106% | – | – | – | – | – | – | – | – | – | – | – | – | – | – | – | – | – | – | – |
